In US20220304305A1, “HIGHLY EFFECTIVE FORMULATIONS ON THE BASIS OF 2-[(2,4-DICHLORPHENYL)-METHYL]-4,4'-DIMETHYL-3-ISOXAZOLIDINONES AND PREEMERGENCE HERBICIDES” (Bayer Aktiengesellschaft, priority 2019, published 2022):

What was measured:
[1] = tested on: gramineous weeds in winter cereals; assay: Greenhouse trials, activity against gramineous weeds (summary in words); type: in vivo; settings: with both adjuvants from as low as 250 g/ha
Description: In the standard implementation of the test, seeds of various broad-leaved weed and weed grass biotypes (origins) were sown in an 8-13 cm diameter pot filled with natural soil of a standard field soil (loamy silt; non-sterile) and covered with a covering soil layer of about 1 cm. The pots were then cultivated in a greenhouse (light for 12-16 h, temperature 20-22° C. by day, 15-18° C. by night) until the time of application. The pots were treated on a laboratory track sprayer with spray liquors comprising the mixtures/compositions of the invention, mixtures of the prior art or the components applied individually. Application of the active ingredients or active ingredient combinations formulated as WG, WP, EC or otherwise was effected at the appropriate growth stages of the plants. The amount of water used for spray application was 100-600 l/ha. After the treatment, the plants were returned to the greenhouses.
About 3 weeks after the application, the soil action or/and foliar action was assessed visually according to a scale of 0-100% in comparison to an untreated comparative group: 0%=no noticeable effect compared to the untreated comparative group; 100%=full effect compared to the untreated comparative group. […]

[2] = list of substances and abbreviations used; cited from earlier work

Row | Compound | improvement [1] | log P [2]
1 | CC1(C)CON(Cc2ccc(Cl)cc2Cl)C1=O [DCPMI, 2-[(2,4-dichlorophenyl)methyl]-4,4′-dimethyl-3-isoxazolidinone] | significant improvement | abbreviated hereinafter to DCPMI), log P = 3.39
2 | CC(C)N(C(=O)COc1nnc(C(F)(F)F)s1)c1ccc(F)cc1 [flufenacet, 4′-fluoro-N-isopropyl-2-(5-trifluoromethyl-1,3,4-thiadiazol-2-yloxy)acetanilide] |  | (Bayer AG), abbreviated hereinafter to FFA, log P = 3.2
